# Reference: patent US9169224B2, “Piperazinyl and piperidinyl ureas as modulators of fatty acid amide hydrolase” (Janssen Pharmaceutica NV, priority 2004, dated 2015)
# Counter-ions that a name gives are not always drawn.
# Molecular target: FAAH (Homo sapiens (Human), UniProt O00519)
# Test: Assay Method 1: FAAH assay, T84 cell homogenate, 3H-anandamide hydrolysis
# Assay type: biochemical
# Details: 3H-AEA tracer 200 nM, 1 h at rt
# Protocol: T84 frozen pellets (contents of 1-4×15 cm culture dishes) were homogenized in 300 mL of FAAH assay buffer (125 mM Tris, 1 mM EDTA, 0.2% glycerol, 0.02% Triton X-100, 0.4 mM Hepes, pH 9). The assay mixture was prepared from 50 μL of the cell homogenate, 10 μL of the test compound, and 40 μL of anandamide [1-3H-ethanolamine] (^3H-AEA; Perkin-Elmer, 10.3 Ci/mmol), which was added last, for a final tracer concentration of 200 nM. The reaction mixture was incubated at rt for 1 hour (h). During the incubation, 96-well Multiscreen filter plates (catalog number MAFCNOB50; Millipore, Bedford, Mass., USA) were loaded with 25 μL of activated charcoal (Multiscreen column loader, catalog number MACL09625, Millipore) and washed once with 100 μL of MeOH. Also during the incubation, 96-well DYNEX MicroLite plates (catalog number NL510410) were loaded with 100 μL of MicroScint40 (catalog number 6013641, Packard Bioscience, Meriden, Conn., USA). After the 1 h incubation, 60 μL of the reaction mixture were transferred to the charcoal plates, which were then assembled on top of the DYNEX plates using Centrifuge Alignment Frames (catalog number MACF09604, Millipore). The unbound, labeled ethanolamine was centrifuged through to the bottom plate (5 min at 2000 rpm), which was preloaded with the scintillant, as described above. The plates were sealed and left at rt for 1 h before counting on a Hewlett Packard TopCount.
# FAAH, sequence (O00519 whole entry): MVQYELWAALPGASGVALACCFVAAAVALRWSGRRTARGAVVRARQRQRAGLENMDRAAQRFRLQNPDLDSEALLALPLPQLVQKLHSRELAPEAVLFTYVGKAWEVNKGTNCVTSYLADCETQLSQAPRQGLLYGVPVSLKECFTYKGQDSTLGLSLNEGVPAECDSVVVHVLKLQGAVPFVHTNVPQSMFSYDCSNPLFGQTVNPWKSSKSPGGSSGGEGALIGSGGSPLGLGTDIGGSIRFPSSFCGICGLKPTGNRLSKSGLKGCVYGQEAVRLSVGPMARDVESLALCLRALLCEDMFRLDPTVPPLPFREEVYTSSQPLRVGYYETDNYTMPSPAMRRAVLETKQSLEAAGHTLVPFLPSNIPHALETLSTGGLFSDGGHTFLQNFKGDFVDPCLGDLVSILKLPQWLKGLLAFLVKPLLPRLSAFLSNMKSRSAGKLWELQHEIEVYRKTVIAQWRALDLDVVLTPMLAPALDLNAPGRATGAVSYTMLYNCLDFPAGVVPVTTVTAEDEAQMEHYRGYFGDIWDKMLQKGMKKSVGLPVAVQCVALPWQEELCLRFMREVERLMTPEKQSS
row,IC50 [nM],SMILES
1,280,"O=C(Nc1ccccc1)N1CCN(Cc2cccc(Br)c2)CC1 [Example C, 4-(3-Bromo-benzyl)-piperazine-1-carboxylic acid phenylamide, reference compound]"
2,27,"O=C(Nc1cccnc1)N1CCN(Cc2ccc(Br)c(Br)c2)CC1 [Example 118, 4-(3,4-Dibromo-benzyl)-piperazine-1-carboxylic acid pyridin-3-ylamide]"
3,19,"O=C(Nc1cccc(F)c1)N1CCN(Cc2ccc(Br)c(Br)c2)CC1 [Example 85, 4-(3,4-Dibromo-benzyl)-piperazine-1-carboxylic acid (3-fluoro-phenyl)-amide]"
4,2000,"Cc1cccc(CN2CCN(C(=O)Nc3ccccc3)CC2)c1 [Example 42, 4-(3-Methyl-benzyl)-piperazine-1-carboxylic acid phenylamide]"
5,120,"O=C(Nc1ccccc1)N1CCN(Cc2cccc(I)c2)CC1 [Example A, 4-(3-Iodo-benzyl)-piperazine-1-carboxylic acid phenylamide, reference compound]"
6,9,"COc1ccc(Oc2cccc(CN3CCN(C(=O)Nc4ccccc4)CC3)c2)cc1 [Example 65, 4-[3-(4-Methoxy-phenoxy)-benzyl]-piperazine-1-carboxylic acid phenylamide]"
7,220,"O=C(Nc1ccccc1)N1CCN(Cc2cccc(Oc3cccc(C(F)(F)F)c3)c2)CC1 [Example 64, 4-[3-(3-Trifluoromethyl-phenoxy)-benzyl]-piperazine-1-carboxylic acid phenylamide]"
8,65,"CS(=O)(=O)c1ccc(Oc2cccc(CN3CCN(C(=O)Nc4ccccc4)CC3)c2)cc1 [Example 134, 4-[3-(4-Methanesulfonyl-phenoxy)-benzyl]-piperazine-1-carboxylic acid phenylamide]"
9,240,"O=C(Nc1cccc(Cl)c1)N1CCN(Cc2ccc(Br)c(Br)c2)CC1 [Example 92, 4-(3,4-Dibromo-benzyl)-piperazine-1-carboxylic acid (3-chloro-phenyl)-amide]"
10,100,"O=C(Nc1ccc(F)cc1)N1CCN(Cc2ccc3ccccc3n2)CC1 [Example 58, 4-Quinolin-2-ylmethyl-piperazine-1-carboxylic acid (4-fluoro-phenyl)-amide]"
11,29,"O=C(Nc1ccccc1)N1CCN(Cc2ccc3cc[nH]c3c2)CC1 [Example 73, 4-(1H-Indol-6-ylmethyl)-piperazine-1-carboxylic acid phenylamide]"
12,200,"COc1cccc(NC(=O)N2CCN(Cc3cnc4ccccc4c3)CC2)c1 [Example 110, 4-Quinolin-3-ylmethyl-piperazine-1-carboxylic acid (3-methoxy-phenyl)-amide]"
13,1000,"O=C(Nc1ccccc1)N1CCN(Cc2ccc(OC3CCCCC3)cc2)CC1 [Example 119, 4-(4-Cyclohexyloxy-benzyl)-piperazine-1-carboxylic acid phenylamide]"
14,4000,"COc1ccc(CN2CCN(C(=O)Nc3ccccc3)CC2)cc1OC [Example 44, 4-(3,4-Dimethoxy-benzyl)-piperazine-1-carboxylic acid phenylamide]"
15,> 10000,"O=C(Nc1ccccc1)N1CCN(Cc2cccnc2)CC1 [Example 47, 4-Pyridin-3-ylmethyl-piperazine-1-carboxylic acid phenylamide]"
16,540,"COc1ccccc1NC(=O)N1CCN(Cc2cnc3ccccc3c2)CC1 [Example 102, 4-Quinolin-3-ylmethyl-piperazine-1-carboxylic acid (2-methoxy-phenyl)-amide]"
17,4000,"O=C(Nc1ccccc1Cl)N1CCC(Cc2ccccc2)CC1 [Example 115, 4-Benzyl-piperidine-1-carboxylic acid (2-chloro-phenyl)-amide]"
18,460,"O=C(Nc1ccccc1)N1CCN(Cc2ccc3c(c2)OCCO3)CC1 [Example 35, 4-(2,3-Dihydro-benzo[1,4]dioxin-6-ylmethyl)-piperazine-1-carboxylic acid phenylamide]"
19,200,"O=C(Nc1cccc(Cl)c1)N1CCN(Cc2cnc3ccccc3c2)CC1 [Example 100, 4-Quinolin-3-ylmethyl-piperazine-1-carboxylic acid (3-chloro-phenyl)-amide]"

row,IC50 [nM],SMILES
1,1500,"CCCOc1ccc(CN2CCN(C(=O)Nc3ccccc3)CC2)cc1 [Example 123, 4-(4-Propoxy-benzyl)-piperazine-1-carboxylic acid phenylamide]"
2,50,"COC(=O)c1ccc(Oc2cccc(CN3CCN(C(=O)Nc4ccccc4)CC3)c2)cc1 [Example 133, 4-[3-(4-Phenylcarbamoyl-piperazin-1-ylmethyl)-phenoxy]-benzoic acid methyl ester]"
3,630,"Cc1ccc(CN2CCN(C(=O)Nc3ccccc3)CC2)cc1C [Example D, 4-(3,4-Dimethyl-benzyl)-piperazine-1-carboxylic acid phenylamide, reference compound]"
4,8000,"O=C(Nc1ccccc1)N1CCN(Cc2ccc3c(c2)Cc2ccccc2-3)CC1 [Example 79, 4-(9H-Fluoren-2-ylmethyl)-piperazine-1-carboxylic acid phenylamide]"
5,2500,"O=C(Nc1ccccc1)N1CCN(Cc2ccccc2Br)CC1 [Example 84, 4-(2-Bromo-benzyl)-piperazine-1-carboxylic acid phenylamide]"
6,170,"O=C(Nc1ccccc1)N1CCN(Cc2ccc3cc(Cl)ccc3n2)CC1 [Example 54, 4-(6-Chloro-quinolin-2-ylmethyl)-piperazine-1-carboxylic acid phenylamide]"
7,33,"O=C(Nc1ccccc1)N1CCN(Cc2cccc(Oc3ccc4ccccc4c3)c2)CC1 [Example 131, 4-[3-(Naphthalen-2-yloxy)-benzyl]-piperazine-1-carboxylic acid phenylamide]"
8,330,"CCn1c2ccccc2c2cc(CN3CCN(C(=O)Nc4ccccc4)CC3)ccc21 [Example 80, 4-(9-Ethyl-9H-carbazol-3-ylmethyl)-piperazine-1-carboxylic acid phenylamide]"
9,1000,"CS(=O)(=O)Oc1cccc(CN2CCN(C(=O)Nc3ccccc3)CC2)c1 [Example 137, Methanesulfonic acid 3-(4-phenylcarbamoyl-piperazin-1-ylmethyl)-phenyl ester]"
10,480,"Cc1cc(CN2CCN(C(=O)Nc3ccccc3)CC2)c(C)n1-c1cccc(C(F)(F)F)c1 [Example 83, 4-[2,5-Dimethyl-1-(3-trifluoromethyl-phenyl)-1H-pyrrol-3-ylmethyl]-piperazine-1-carboxylic acid phenylamide]"
11,21,"O=C(Nc1ccc(F)cc1)N1CCN(Cc2ccc(Br)c(Br)c2)CC1 [Example 86, 4-(3,4-Dibromo-benzyl)-piperazine-1-carboxylic acid (4-fluoro-phenyl)-amide]"
12,170,"CCCOc1cccc(CN2CCN(C(=O)Nc3ccccc3)CC2)c1 [Example 120, 4-(3-Propoxy-benzyl)-piperazine-1-carboxylic acid phenylamide]"
13,4000,"O=C(Nc1ccccc1)N1CCN(Cc2ccc3[nH]ccc3c2)CC1 [Example 43, 4-(1H-Indol-5-ylmethyl)-piperazine-1-carboxylic acid phenylamide]"
14,100,"Cc1cccc(NC(=O)N2CCN(Cc3ccc(Br)c(Br)c3)CC2)c1 [Example 88, 4-(3,4-Dibromo-benzyl)-piperazine-1-carboxylic acid m-tolylamide]"
15,5000,"O=C(Nc1ccccc1)N1CCN(Cc2cccc(Oc3cc(Cl)cc(Cl)c3)c2)CC1 [Example 78, 4-[3-(3,5-Dichloro-phenoxy)-benzyl]-piperazine-1-carboxylic acid phenylamide]"
16,1600,"O=C(Nc1ccccc1Cl)N1CCN(Cc2cnc3ccccc3c2)CC1 [Example 99, 4-Quinolin-3-ylmethyl-piperazine-1-carboxylic acid (2-chloro-phenyl)-amide]"
17,52,"O=C(Nc1ccccc1)N1CCN(Cc2ccc(I)cc2)CC1 [Example 24, 4-(4-Iodo-benzyl)-piperazine-1-carboxylic acid phenylamide]"
18,6000,"O=C(Nc1ccccc1)N1CCN(Cc2cccc3c2OCO3)CC1 [Example 51, 4-Benzo[1,3]dioxol-4-ylmethyl-piperazine-1-carboxylic acid phenylamide]"

# Same assay, conditions: 3H-AEA tracer 200 nM, 1 h at rt, dihydrochloride
row,SMILES,IC50 [nM]
1,"O=C(Nc1ccccc1)N1CCN(Cc2ccc3ccccc3n2)CC1 [Example 163, 4-Quinolin-2-ylmethyl-piperazine-1-carboxylic acid phenylamide dihydrochloride]",23

# Same assay, conditions: 3H-AEA tracer 200 nM, 1 h at rt, hydrochloride
row,IC50 [nM],SMILES
1,210,"COc1cc(Br)cc(CN2CCN(C(=O)Nc3ccccc3)CC2)c1O [Example 161, 4-(5-Bromo-2-hydroxy-3-methoxy-benzyl)-piperazine-1-carboxylic acid phenylamide hydrochloride]"
2,1200,"O=C(Nc1ccccc1)N1CCN(Cc2ccc3c(c2)OCO3)CC1 [Example B1, 4-Benzo[1,3]dioxol-5-ylmethyl-piperazine-1-carboxylic acid phenylamide hydrochloride, reference compound]"
